Values after ≈ are worked out from the molar mass of the structure shown. Like-named read-outs stand apart in the source and are kept apart here. Starred links: 1 amine or outer side, 2 acyl side, 3 side chain; linkers in the order of their positions; H or OH if unused. Positions of bridges follow the written chain, without caps; N, C: chain ends. Residues, ends and D or L forms follow the SMILES beside them. *: point of attachment. C20 diacid = O=C(O)CCCCCCCCCCCCCCCCCCC(=O)*; C18 diacid = O=C(O)CCCCCCCCCCCCCCCCC(=O)*; γGlu = O=C(O)[C@H](CCC(=O)[*:2])N[*:1]
What was measured:
[1] = biological target: T1, human amylin receptor (amylin 3(a) receptor: human calcitonin receptor + RAMP-3) (Homo sapiens, UniProt O60896+P30988); test: Assay (II)a functional CRE-luciferase assay, human amylin receptor; format: cell-based; conditions: Table 2; BHK amylin 3(a)-receptor/CRE-luc cells
T1 construct: expressed in transfected cells; host or cells: BHK570
T1 sequence (P30988 25-474): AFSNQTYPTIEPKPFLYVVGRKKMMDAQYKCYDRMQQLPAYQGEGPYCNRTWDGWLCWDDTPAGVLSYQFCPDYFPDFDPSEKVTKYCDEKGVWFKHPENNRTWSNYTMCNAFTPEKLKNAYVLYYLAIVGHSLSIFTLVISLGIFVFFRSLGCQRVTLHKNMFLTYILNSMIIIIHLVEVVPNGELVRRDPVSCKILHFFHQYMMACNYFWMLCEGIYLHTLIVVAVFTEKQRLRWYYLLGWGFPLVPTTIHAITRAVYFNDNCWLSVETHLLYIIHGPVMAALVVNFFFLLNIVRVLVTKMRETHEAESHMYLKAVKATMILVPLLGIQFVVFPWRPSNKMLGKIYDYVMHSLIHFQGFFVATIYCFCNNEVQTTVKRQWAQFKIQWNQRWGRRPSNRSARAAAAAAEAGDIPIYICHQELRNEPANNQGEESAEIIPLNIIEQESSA
T1 sequence (O60896 24-148 partner): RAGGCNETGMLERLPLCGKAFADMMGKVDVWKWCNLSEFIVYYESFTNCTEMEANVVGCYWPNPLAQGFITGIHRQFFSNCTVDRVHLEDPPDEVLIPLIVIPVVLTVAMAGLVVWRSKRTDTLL

[2] = biological target: T2, human calcitonin receptor (Homo sapiens, UniProt P30988); test: Assay (II)a functional CRE-luciferase assay, human calcitonin receptor; format: cell-based; conditions: Table 7; human calcitonin (CTa) receptor
T2 construct: expressed in transfected cells; host or cells: BHK570
T2 sequence (P30988 25-474): T1 sequence (P30988 25-474)

[3] = Assay (III) ThT fibrillation assay for physical stability; format: physicochemical; conditions: ThT fibrillation assay
In short: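 Freshly prepared formulations, pH-adjusted, with 1 μM ThT; four or eight replicates incubated at 37 °C under 960 rpm orbital shaking. Fluorescence (ex 444/em 485 nm) read every 20 min; […]. Peptide concentration measured by RP-HPLC before and after the run.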

[4] = Assay (IV) determination of solubility; format: physicochemical
In short: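 Polypeptide in water (~500 nmol/ml stock) was mixed 1:1 with 100 mM buffers from pH 3.0 to 8.0 (glycylglycine pH 3.0–5.0; bistrispropane pH 6.0–8.0). After 18 hours at room temperature, samples were centrifuged and the polypeptide remaining in solution was quantified by HPLC.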

[5] = bistrispropane buffer, pH 6, pH 6.0, read-out: Solubility pH 6.0
[6] = bistrispropane buffer, pH 6.5, pH 6.5, read-out: Solubility pH 6.5
[7] = bistrispropane buffer, pH 7, pH 7.0, 18 hours at room temperature, Table 3, read-out: Solubility pH 7.0
[8] = bistrispropane buffer, pH 7, pH 7.0, read-out: Solubility pH 7.0
[9] = bistrispropane buffer, pH 7.5, pH 7.5, read-out: Solubility pH 7.5
[10] = bistrispropane buffer, pH 8, pH 8.0, read-out: Solubility pH 8.0
[11] = glycylglycine buffer, pH 3, pH 3.0, read-out: Solubility pH 3.0
[12] = glycylglycine buffer, pH 4, pH 4.0, 18 hours at room temperature, Table 2, read-out: Solubility pH 4.0
[13] = glycylglycine buffer, pH 4, pH 4.0, read-out: Solubility pH 4.0
[14] = glycylglycine buffer, pH 5, pH 5.0, read-out: Solubility pH 5.0

Row | SMILES | EC50 [1] | EC50 [2] | ThT pH 4.0 lag time (h) [3] | solubility at 18 h [4, 5] | solubility at 18 h [4, 6] | solubility at 18 h [4, 7] | solubility at 18 h [4, 8] | solubility at 18 h [4, 9] | solubility at 18 h [4, 10] | solubility at 18 h [4, 11] | solubility at 18 h [4, 12] | solubility at 18 h [4, 13] | solubility at 18 h [4, 14]
1 | CC[C@H](C)[C@H](NC(=O)[C@@H]1CCCN1C(=O)CNC(=O)[C@H](Cc1ccccc1)NC(=O)[C@H](CC(N)=O)NC(=O)[C@H](CC(N)=O)NC(=O)[C@H](CO)NC(=O)[C@H](CO)NC(=O)[C@H](Cc1c[nH]cn1)NC(=O)[C@H](Cc1c[nH]cn1)NC(=O)[C@H](CC(C)C)NC(=O)[C@H](Cc1ccccc1)NC(=O)[C@H](CCC(=O)O)NC(=O)[C@H](C)NC(=O)[C@H](CC(C)C)NC(=O)[C@H](CCCNC(=N)N)NC(=O)[C@H](CCC(=O)O)NC(=O)[C@@H](NC(=O)[C@H](C)NC(=O)[C@@H]1CSSC[C@H](NC(=O)[C@H](CCCCN)NC(=O)CC[C@H](NC(=O)CCCCCCCCCCCCCCCCCCC(=O)O)C(=O)O)C(=O)N[C@@H](CC(N)=O)C(=O)N[C@@H]([C@@H](C)O)C(=O)N[C@@H](C)C(=O)N[C@@H]([C@@H](C)O)C(=O)N1)[C@@H](C)O)C(=O)N[C@@H](CC(C)C)C(=O)N1CCC[C@H]1C(=O)N1CCC[C@H]1C(=O)N[C@H](C(=O)N[C@@H](CC(N)=O)C(=O)N[C@H](C(=O)NCC(=O)N[C@@H](CO)C(=O)N[C@@H](CC(N)=O)C(=O)N[C@H](C(=O)N[C@@H](Cc1ccc(O)cc1)C(N)=O)[C@@H](C)O)C(C)C)[C@@H](C)O [Example 54, N-alpha-[(S)-4-Carboxy-4-(19-carboxynonadecanoylamino)butyryl]-[Glu10,Glu14,His17]-pramlintide] ({C20 diacid-γGlu}-KCNTATCATERLAEFLHHSSNNFGPILPPTNVGSNTY-NH2; disulfide 2-7 (inferred)) | 0.13 nM | 0.199 nM | 23 h | 100 µM (≈ 446 µg/mL) | 150 µM (≈ 669 µg/mL) | > 200 µM | > 200 µM | > 200 µM | > 200 µM | > 200 µM | > 200 µM | > 200 µM | > 200 µM
2 | CC[C@H](C)[C@H](NC(=O)[C@@H]1CCCN1C(=O)CNC(=O)[C@H](Cc1ccccc1)NC(=O)[C@H](CC(N)=O)NC(=O)[C@H](CC(N)=O)NC(=O)[C@H](CO)NC(=O)[C@H](CO)NC(=O)[C@H](Cc1c[nH]cn1)NC(=O)[C@H](Cc1c[nH]cn1)NC(=O)[C@H](CC(C)C)NC(=O)[C@H](Cc1ccccc1)NC(=O)[C@H](CCC(=O)O)NC(=O)[C@H](C)NC(=O)[C@H](CC(C)C)NC(=O)[C@H](CCCNC(=N)N)NC(=O)[C@H](CCC(N)=O)NC(=O)[C@@H](NC(=O)[C@H](C)NC(=O)[C@@H]1CSSC[C@H](NC(=O)[C@H](CCCCN)NC(=O)[C@H](CCC(=O)O)NC(=O)CC[C@H](NC(=O)CCCCCCCCCCCCCCCCC(=O)O)C(=O)O)C(=O)N[C@@H](CC(N)=O)C(=O)N[C@@H]([C@@H](C)O)C(=O)N[C@@H](C)C(=O)N[C@@H]([C@@H](C)O)C(=O)N1)[C@@H](C)O)C(=O)N[C@@H](CC(C)C)C(=O)N1CCC[C@H]1C(=O)N1CCC[C@H]1C(=O)N[C@H](C(=O)N[C@@H](CC(N)=O)C(=O)N[C@H](C(=O)NCC(=O)N[C@@H](CO)C(=O)N[C@@H](Cc1c[nH]cn1)C(=O)N[C@H](C(=O)N[C@@H](Cc1ccc(O)cc1)C(N)=O)[C@@H](C)O)C(C)C)[C@@H](C)O [Example 60, N-alpha-[(S)-4-Carboxy-4-(17-carboxyheptadecanoylamino)butyryl]-Glu-[Glu14,His17,His35]-pramlintide] ({C18 diacid-γGlu}-EKCNTATCATQRLAEFLHHSSNNFGPILPPTNVGSHTY-NH2; disulfide 3-8) | 0.102 nM | 0.169 nM | 10 h | > 200 µM | > 200 µM | > 200 µM | > 200 µM | > 200 µM | > 200 µM | > 200 µM | > 200 µM | > 200 µM | > 200 µM
3 | CC[C@H](C)[C@H](NC(=O)[C@@H]1CCCN1C(=O)CNC(=O)[C@H](Cc1ccccc1)NC(=O)[C@H](CC(N)=O)NC(=O)[C@H](CO)NC(=O)[C@H](CO)NC(=O)[C@H](CO)NC(=O)[C@H](Cc1c[nH]cn1)NC(=O)[C@H](Cc1c[nH]cn1)NC(=O)[C@H](CC(C)C)NC(=O)[C@H](Cc1ccccc1)NC(=O)[C@H](CCC(=O)O)NC(=O)[C@H](C)NC(=O)[C@H](CC(C)C)NC(=O)[C@H](CCCNC(=N)N)NC(=O)[C@H](CCC(N)=O)NC(=O)[C@@H](NC(=O)[C@H](C)NC(=O)[C@@H]1CSSC[C@H](NC(=O)[C@H](Cc2c[nH]cn2)NC(=O)[C@H](Cc2c[nH]cn2)NC(=O)[C@H](Cc2c[nH]cn2)NC(=O)CC[C@H](NC(=O)CCCCCCCCCCCCCCCCCCC(=O)O)C(=O)O)C(=O)N[C@@H](CC(N)=O)C(=O)N[C@@H]([C@@H](C)O)C(=O)N[C@@H](C)C(=O)N[C@@H]([C@@H](C)O)C(=O)N1)[C@@H](C)O)C(=O)N[C@@H](CC(C)C)C(=O)N1CCC[C@H]1C(=O)N1CCC[C@H]1C(=O)N[C@H](C(=O)N[C@@H](CC(N)=O)C(=O)N[C@H](C(=O)NCC(=O)N[C@@H](CO)C(=O)N[C@@H](CCC(=O)O)C(=O)N[C@H](C(=O)N[C@@H](Cc1ccc(O)cc1)C(N)=O)[C@@H](C)O)C(C)C)[C@@H](C)O [Example 63, N-alpha-[(S)-4-Carboxy-4-(19-carboxynonadecanoylamino)butyryl]-His-His-[His1,Glu14,His17,Ser21,Glu35]-pramlintide] ({C20 diacid-γGlu}-HHHCNTATCATQRLAEFLHHSSSNFGPILPPTNVGSETY-NH2; disulfide 4-9 (inferred); C-terminus assumed) | 0.558 nM | 0.632 nM | 2 h | 1 µM (≈ 4.73 µg/mL) | 2 µM (≈ 9.45 µg/mL) | – | 75 µM (≈ 355 µg/mL) | > 200 µM | > 200 µM | > 200 µM | > 200 µM | > 200 µM | > 200 µM
4 | CC(C)C[C@H](NC(=O)[C@H](CCCNC(=N)N)NC(=O)[C@H](CCC(N)=O)NC(=O)[C@@H](NC(=O)[C@H](C)NC(=O)[C@@H]1CSSC[C@H](NC(=O)[C@H](CCCCN)NC(=O)CC[C@H](NC(=O)CCCCCCCCCCCCCCCCCCC(=O)O)C(=O)O)C(=O)N[C@@H](CC(N)=O)C(=O)N[C@@H]([C@@H](C)O)C(=O)N[C@@H](C)C(=O)N[C@@H]([C@@H](C)O)C(=O)N1)[C@@H](C)O)C(=O)N[C@@H](C)C(=O)N[C@@H](CCC(=O)O)C(=O)N[C@@H](Cc1ccccc1)C(=O)N[C@@H](CC(C)C)C(=O)N[C@@H](Cc1c[nH]cn1)C(=O)N[C@@H](Cc1c[nH]cn1)C(=O)N[C@@H](CO)C(=O)N[C@@H](CO)C(=O)N[C@@H](CC(N)=O)C(=O)N[C@@H](CC(N)=O)C(=O)N[C@@H](Cc1ccccc1)C(=O)NCC(=O)N[C@@H](C)C(=O)N1CCC[C@H]1C(=O)N[C@@H](CC(C)C)C(=O)N[C@@H](CO)C(=O)N[C@@H](CO)C(=O)N[C@H](C(=O)N[C@@H](CC(N)=O)C(=O)N[C@H](C(=O)NCC(=O)N[C@@H](CO)C(=O)N[C@@H](Cc1c[nH]cn1)C(=O)N[C@H](C(=O)N[C@@H](Cc1ccc(O)cc1)C(N)=O)[C@@H](C)O)C(C)C)[C@@H](C)O [Example 64, N-alpha-[(S)-4-Carboxy-4-(19-carboxynonadecanoylamino)butyryl]-[Glu14,His17,Ala25,Pro26,Ser28,Ser29,His35]-pramlintide] ({C20 diacid-γGlu}-KCNTATCATQRLAEFLHHSSNNFGAPLSSTNVGSHTY-NH2; disulfide 2-7 (inferred)) | 0.153 nM | 0.0945 nM | 6 h | > 200 µM | 189 µM (≈ 835 µg/mL) | – | 91 µM (≈ 402 µg/mL) | 136 µM (≈ 601 µg/mL) | > 200 µM | > 200 µM | > 200 µM | > 200 µM | > 200 µM
